Results: article PMC3177597 (Bioorganic & medicinal chemistry letters, 2009)

How the values were obtained:
[1] = test system: mGluRs 1, 2, 3, 4, 7 and 8; test: Selectivity versus other mGluRs
[2] = target: MPEP allosteric binding site on mGluR5 (Rattus norvegicus, UniProt P31424); test: Displacement of [3H]3-methoxy-5-
Sequence of MPEP allosteric binding site on mGluR5 (P31424 21-1203): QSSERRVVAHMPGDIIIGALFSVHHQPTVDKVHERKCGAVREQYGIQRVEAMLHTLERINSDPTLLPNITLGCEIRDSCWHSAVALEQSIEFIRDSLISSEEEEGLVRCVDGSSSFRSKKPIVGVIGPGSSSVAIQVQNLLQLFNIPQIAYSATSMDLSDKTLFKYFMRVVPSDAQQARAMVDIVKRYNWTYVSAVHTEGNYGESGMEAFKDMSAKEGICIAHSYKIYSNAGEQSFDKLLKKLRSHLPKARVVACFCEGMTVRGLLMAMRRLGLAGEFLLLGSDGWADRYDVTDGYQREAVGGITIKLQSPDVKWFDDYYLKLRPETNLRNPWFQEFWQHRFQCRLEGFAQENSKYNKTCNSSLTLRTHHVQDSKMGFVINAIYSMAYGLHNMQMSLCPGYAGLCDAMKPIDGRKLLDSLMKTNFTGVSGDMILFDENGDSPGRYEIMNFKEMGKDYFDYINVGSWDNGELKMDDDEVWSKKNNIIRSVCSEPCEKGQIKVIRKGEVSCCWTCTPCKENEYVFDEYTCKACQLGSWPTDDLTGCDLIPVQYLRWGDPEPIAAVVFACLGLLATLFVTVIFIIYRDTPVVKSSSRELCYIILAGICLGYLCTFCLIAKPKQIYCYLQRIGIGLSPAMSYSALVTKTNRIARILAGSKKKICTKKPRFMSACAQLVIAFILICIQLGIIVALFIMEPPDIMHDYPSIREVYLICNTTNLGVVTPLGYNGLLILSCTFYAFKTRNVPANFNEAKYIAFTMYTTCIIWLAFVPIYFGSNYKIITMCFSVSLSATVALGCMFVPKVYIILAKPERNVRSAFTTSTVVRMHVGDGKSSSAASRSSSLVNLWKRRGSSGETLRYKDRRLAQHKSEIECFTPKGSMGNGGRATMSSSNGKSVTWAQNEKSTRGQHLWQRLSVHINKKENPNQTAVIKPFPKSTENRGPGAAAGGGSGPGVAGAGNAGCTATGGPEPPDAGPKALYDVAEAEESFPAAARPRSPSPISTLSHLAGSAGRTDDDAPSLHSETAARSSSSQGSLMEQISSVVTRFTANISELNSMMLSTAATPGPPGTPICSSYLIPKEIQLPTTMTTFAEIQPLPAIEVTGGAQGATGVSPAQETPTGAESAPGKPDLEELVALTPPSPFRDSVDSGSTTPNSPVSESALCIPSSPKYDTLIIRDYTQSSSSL

Ki [2] | Structure (SMILES) | selectivity versus mGluRs 1, 2, 3, 4, 7 and 8 [1]
1100 nM | COc1ccccc1C(=O)Nc1cccc(NC(=O)c2cccc(Cl)c2)c1 [compound 8] | selective
319 nM | O=C(Nc1ccccc1O)c1cccc(N2C(=O)c3ccccc3C2=O)c1 [compound 9, 3-(phthalimidyl)-N-(2-hydroxyphenyl)benzamide] | selective
